Source: patent publication US10058100B2, “Hydrogen sulfide releasing compounds and their use” (THE UNIVERSITY OF EXETER, priority 2011, dated 2018)
Entries after “also recorded” stand apart in the source; their conditions may differ.

What was measured:
[1] = system: Human brain microvascular endothelial cells (HMEC); test: Prevention of cell death induced by oxidants (SIN-1, H2O2, 4-HNE), Alamar Blue; type: cell-based
HMEC [2] = test: Cell death induced by inhibitors of endogenous H2S synthesis (AOAA, PAG); type: cell-based, human; details: FIGS. 5-7, p<0.001
From the text: In the data shown in FIGS. 5 to 7, ###=p<0.001 compared to the control; ***=p<0.001 compared to inhibitors.

HMEC [3] = test: Mitochondrial membrane potential (ΔΨm), tetramethylrhodamine methyl ester; type: cell-based, human; details: H2O2, SIN-1 or 4-HNE, FIG. 13
Description: HMEC were incubated with H2S donor compounds for 5 hrs followed by the addition of oxidants SIN-1 (500 μM), H2O2 (50 μM) or […] (10 μM) for 24 hrs. After this time the mitochondria-specific potentiometric dye tetramethylrhodamine methyl ester (200 nM) was added and fluorescence was determined using a Gemini M2e microplate reader (excitation wavelength 548 nm, emission wavelength 573 nm). The method was performed in accordance with the method described by M. Whiteman et al (FASEB J, 2004, 18, 1395-1397).

HMEC [4] = test: Intracellular oxidative stress measurements (DCFDA assay); type: cell-based, human; details: for 4-HNE-derived intracellular oxidant species (DCFDA assay): FIGS. 14 and 15; for time dependent increase in intracellular oxidative stress (DCFDA assay): FIG. 15
Description: HMEC were incubated with H2S donor compounds for 5 hrs then H2O2, […] or SIN-1 were added for 2 hrs. Intracellular oxidative stress was then assessed using dichlorofluorescein diacetate (added at a final concentration of 10 μM) and fluorescence detected using a Gemini M2e microplate reader at 37° C. (excitation wavelength, 488 nm, emission wavelength 525 nm). The method was performed in accordance with the method described by M. Whiteman et al (Meths. Mol. Biol., 2008, 476, 29-50).

HMEC [5] = test: Mitochondrial oxidative stress measurements (MitoSox Red); type: cell-based, human; details: for mitochondrial superoxide formation induced by 4-HNE (MitoSOX red): 4-HNE 10 μM; for mitochondrial superoxide formation induced by H2O2 (MitoSOX red): H2O2 50 μM, FIG. 17
Description: HMEC were incubated with H2S donor compounds for 5 hrs then the oxidants H2O2, SIN-1 or […] added for 2 hrs. We used a mitochondria-selective oxidant probe MitoSox Red (final concentration, 5 μM) to detect mitochondria-derived oxidant species by fluorescence using a Gemini M2e microplate reader (excitation wavelength 510 nm, emission wavelength, 580 nm). The method was performed in accordance with the method described by M. Whiteman et al (Meths. Mol. Biol., 2008, 476, 29-50) and R. A. Quintanilla et al (J Biol Chem., 2008, 284, 18754-18766).

[6] = system: anaesthetised Wistar rats; test: Blood pressure, heart rate and breathing rate of anaesthetised Wistar rats; type: in vivo, rat; details: for blood pressure / breathing rate / heart rate: anaesthetised Wistar rats
Description: The mean arterial blood pressure (MAP) of anaesthetised Wistar rats was measured by a pressure transducer in the carotid artery. In ex vivo experiments, effects of AP39 were studied on noradrenaline precontracted rat aortic rings (see below). The single channel properties of intracellular chloride channels from rat heart were studied using the bilayer lipid membrane method (see below).
(§1) The catheter was inserted into the right jugular vein of male wistar rats or male spontaneously hypertensive (SHR) rats so as to reach the right atrium. Anesthesia (ZOLELIT, VIRBAC, 40 mg/kg to leg) and Xylazine 2%. AP39 solutions were prepared in 4 μl DMSO then mixed with 100 μl Krebs solution and immediately applied for 10 sec. (FIGS. 20, 21 and 22).
(§2) Blood pressure, heart rate and breathing rate were all measured at the same time, in accordance with Ling et al., 2008 Circulation 117 2351-2360.

[7] = system: spontaneously hypertensive (SHR) rats; test: Blood pressure, heart rate and breathing rate of anaesthetised SHR rats; type: in vivo, rat
Description: as §1, §2

[8] = system: adrenaline-precontracted rat aorta; test: Relaxation of adrenaline precontracted rat aortic rings; details: AP39 1-5 μM, 200 nmol/l adrenaline, FIG. 23 A-C
Description: (§3) The rings of thoracic aorta (approx. 3-4-mm diameter) or mesenteric artery were prepared from male Wistar rats and were mounted for recording of isometric tension changes in pneumoxid-oxygenated (95% O2:CO2, 37° C.) Krebs-bicarbonate solution as described in Ling et al., 2008 Circulation 117 […]. The aortic ring was pre-contracted with 200 nmol/l adrenaline and the effect of AP39 was evaluated (FIG. 23).

mesenteric arteries = test: Relaxation of adrenaline precontracted rat mesenteric arteries; details: AP39 1-5 μM, FIG. 23 D
Description: as §3

[9] = system: chloride channels derived from rat heart sarcoplasmic reticulum; test: Single channel properties of chloride channels in bilayer lipid membrane; type: biochemical
Description: Sarcoplasmic reticulum (SR) vesicles, isolated from rat heart, were fused into bilayer lipid membrane separating the cis and trans chambers, and electrical current through the single chloride channel was measured. […] The single channel parameters: Open probability, current-voltage relationship, reversal potential, mean open and close time and single current amplitude were evaluated (FIGS. 24-28).

[10] = target: T1, CAv3.1 T-type calcium channels (Homo sapiens, UniProt O43497); test: T-type calcium channel CAv3.1 whole cell patch-clamp in HEK 293 cells; type: cell-based; details: HEK293 cells, concentration and time-dependent, holding potential −100 mV, FIGS. 29-31
T1 construct: expressed in transfected cells; host or cells: HEK 293 cells, permanently transfected
Description: CAv3.1 calcium channels were permanently transfected in human embryonic kidney (HEK 293) cells and the calcium currents were measured by a patch-clamp method in the whole cell configuration, from a holding potential −100 mV.
The effect of four different concentrations of AP39 on the current through a Cav3.1 channel was tested (FIGS. 29-31).

peroxiredoxin 3 (Prx3) = test: Western blot of mitochondrial peroxiredoxin 3 oxidation in THP-1 cells; type: cell-based, human
Description: Human THP-1 (monocytic) cells were exposed to an oxidative stress inducing agent (hydrogen peroxide; H2O2, 25 μM) in the presence or absence of the mitochondria-targeted H2S donor AP39.
In the experiment resulting in FIG. 32, the human THP-1 (monocytic) cells were exposed to 25 μM H2O2 for 4 hours in the absence or presence of different concentrations of AP39 (given in μM).
In the experiment resulting in FIG. 33, the human THP-1 (monocytic) cells were exposed to different concentrations of AP39 (given in μM) for 4 hours followed by the addition of 25 μM H2O2 for 1 minute.
In both experiments, after these time periods the levels of native mitochondrial matrix protein peroxiredoxin 3 (Prx3) (dimer, molecular weight 37 kDa) and over-oxidised Prx3 (monomer, molecular weight 25 kDa) were determined by standard western blotting procedures (M Whiteman et al (FASEB J, 2004, 18, 1395-1397) (FIGS. 32 and 33).

[11] = system: transcription factor Nrf2; test: Nrf2 activation, luciferase reporter in AREc32 cells; type: cell-based, human; details: FIG. 34
Description: Nrf2 activation was studied in AREc32 cells. This stable cell line is derived from MCF-7 cells transfected with a construct containing eight copies of the rat glutathione-S-transferase-A2 Antioxidant Response […] Element (ARE) and the SV40 promoter sequence upstream of a firefly luciferase reporter gene (Wang, X. J. et al., 2006, Cancer Res, 66, 10983-94). […] After 4 h the treatments were removed and the cells were treated with sulforaphane (12.5 μM), an Nrf2-activator and positive control, for 24 hrs. Nrf-2 activation (luciferase activity) was then assessed by luminescence with a BMG labtech Omega microplate reader (FIG. 34). Data are expressed as fold induction of luciferase activity normalised to cell biomass (sulforhodamine B).

inflammasome [12] = test: Inhibition of inflammasome activation (LPS/ATP), IL-1β ELISA in THP-1 cells; type: cell-based, human; details: AP39 with LPS 1 μg/ml 24 hrs, then ATP 5 mM 24 hrs, FIG. 35
Description: (§4) Human THP-1 cells were cultured in RPMI medium and incubated with AP39 and bacterial endotoxin (lipopolysaccharide; LPS) (1 μg/ml) for 24 hrs, followed by ATP (5 mM) for an additional 24 hrs. After this time cell culture media was collected and inflammasome activation determined by measuring IL-10 levels in the culture media by commercial ELISA (Human IL-1 beta ELISA Ready-SET-Go, eBioscience) (FIG. 35). Data are mean+/−standard deviation (n=3).

inflammasome [13] = test: Inhibition of inflammasome activity once inflammasome is activated, IL-1β ELISA in THP-1 cells; type: cell-based, human; details: LPS 24 hrs, then ATP and AP39 24 hrs, FIG. 36
Description: as §4, with “exposed to” for “incubated with AP39 and”, “mM) and AP39” for “mM)”, “for” for “for an additional”, “activity” for “activation”, “IL-1β” for “IL-10”, “36).” for “35).”

cancer = details: in vitro and in vivo; cited from earlier work
[14] = 1.6 μM/kg and 2.7 μM/kg AP39 injected, FIG. 20
[15] = Wistar or SHR rats, Na2S, summary statement, dose not given

T1 sequence (O43497 whole entry): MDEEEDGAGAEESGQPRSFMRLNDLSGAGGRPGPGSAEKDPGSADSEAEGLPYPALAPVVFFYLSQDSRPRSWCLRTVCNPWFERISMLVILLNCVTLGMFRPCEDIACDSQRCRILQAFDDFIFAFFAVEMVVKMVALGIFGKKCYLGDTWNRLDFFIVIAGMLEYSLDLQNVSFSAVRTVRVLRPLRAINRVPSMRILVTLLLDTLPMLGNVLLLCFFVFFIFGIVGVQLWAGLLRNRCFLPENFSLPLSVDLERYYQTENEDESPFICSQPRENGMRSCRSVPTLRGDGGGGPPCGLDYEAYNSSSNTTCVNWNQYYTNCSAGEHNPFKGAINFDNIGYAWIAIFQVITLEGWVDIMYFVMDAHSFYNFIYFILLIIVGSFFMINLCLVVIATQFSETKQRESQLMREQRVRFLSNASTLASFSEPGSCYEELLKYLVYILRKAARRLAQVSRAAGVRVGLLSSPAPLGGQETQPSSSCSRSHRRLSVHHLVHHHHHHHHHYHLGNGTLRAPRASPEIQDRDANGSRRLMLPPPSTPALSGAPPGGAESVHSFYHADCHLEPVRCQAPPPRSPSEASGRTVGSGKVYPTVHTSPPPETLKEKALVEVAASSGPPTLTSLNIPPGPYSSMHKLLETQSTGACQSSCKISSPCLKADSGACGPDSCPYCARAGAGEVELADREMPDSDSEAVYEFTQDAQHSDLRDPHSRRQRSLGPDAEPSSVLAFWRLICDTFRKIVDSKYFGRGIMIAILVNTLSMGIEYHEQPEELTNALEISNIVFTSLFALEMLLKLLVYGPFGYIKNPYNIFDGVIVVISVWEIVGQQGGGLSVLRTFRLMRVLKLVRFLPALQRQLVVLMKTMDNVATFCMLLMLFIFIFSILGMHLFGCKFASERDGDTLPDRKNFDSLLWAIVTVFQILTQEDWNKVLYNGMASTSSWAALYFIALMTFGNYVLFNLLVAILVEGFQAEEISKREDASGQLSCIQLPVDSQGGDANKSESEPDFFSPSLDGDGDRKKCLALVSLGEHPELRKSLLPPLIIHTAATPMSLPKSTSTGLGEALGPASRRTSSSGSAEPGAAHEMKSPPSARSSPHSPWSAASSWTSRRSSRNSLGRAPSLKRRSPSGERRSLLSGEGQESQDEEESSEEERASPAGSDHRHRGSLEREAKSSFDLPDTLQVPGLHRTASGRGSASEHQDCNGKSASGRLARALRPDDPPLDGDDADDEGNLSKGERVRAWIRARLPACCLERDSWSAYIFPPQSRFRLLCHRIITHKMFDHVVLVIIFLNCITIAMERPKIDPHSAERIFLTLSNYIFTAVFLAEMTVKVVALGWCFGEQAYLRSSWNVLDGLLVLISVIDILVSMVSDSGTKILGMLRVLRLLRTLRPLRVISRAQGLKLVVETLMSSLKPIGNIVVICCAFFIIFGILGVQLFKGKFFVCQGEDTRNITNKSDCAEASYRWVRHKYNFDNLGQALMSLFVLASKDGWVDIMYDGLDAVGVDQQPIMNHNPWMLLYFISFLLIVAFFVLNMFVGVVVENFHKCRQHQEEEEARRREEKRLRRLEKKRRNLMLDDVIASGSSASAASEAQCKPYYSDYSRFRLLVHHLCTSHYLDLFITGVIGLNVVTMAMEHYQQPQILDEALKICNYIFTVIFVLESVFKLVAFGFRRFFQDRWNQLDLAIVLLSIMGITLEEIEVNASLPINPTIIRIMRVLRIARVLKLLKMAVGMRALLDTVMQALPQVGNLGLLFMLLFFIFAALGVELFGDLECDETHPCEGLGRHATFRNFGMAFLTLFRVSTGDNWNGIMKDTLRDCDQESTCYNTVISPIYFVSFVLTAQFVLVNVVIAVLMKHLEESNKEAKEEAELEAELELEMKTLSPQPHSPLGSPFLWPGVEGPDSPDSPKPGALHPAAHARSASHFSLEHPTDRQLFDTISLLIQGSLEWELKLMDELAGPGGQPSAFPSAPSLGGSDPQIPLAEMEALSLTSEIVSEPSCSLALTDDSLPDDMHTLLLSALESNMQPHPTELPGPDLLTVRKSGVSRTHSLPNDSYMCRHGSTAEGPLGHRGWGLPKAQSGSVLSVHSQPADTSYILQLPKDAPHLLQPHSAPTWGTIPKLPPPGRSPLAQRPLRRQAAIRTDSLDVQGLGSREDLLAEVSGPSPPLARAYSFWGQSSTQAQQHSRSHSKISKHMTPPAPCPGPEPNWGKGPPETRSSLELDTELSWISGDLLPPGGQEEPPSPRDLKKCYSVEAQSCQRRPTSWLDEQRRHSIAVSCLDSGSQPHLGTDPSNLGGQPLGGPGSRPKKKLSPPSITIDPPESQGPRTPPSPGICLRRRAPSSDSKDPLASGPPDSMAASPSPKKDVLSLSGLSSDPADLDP

Compound: O=C(CCCCCCCCC[P+](c1ccccc1)(c1ccccc1)c1ccccc1)Oc1ccc(-c2cc(=S)ss2)cc1.[Br-] [AP39]
- H2O2-induced cytotoxicity [1]: inhibited
- SIN-1 and 4-HNE induced cell death [1]: significantly inhibited
- cell death induced by 4-HNE [1]: significantly inhibited
- cell death induced by SIN-1 [1]: significantly inhibited
- concentration mediating inhibition of cell death, mitochondrial dysfunction and oxidative stress [1]: 50 to 200 nM
- AOAA, PAG and AOAA/PAG induced cell death (HMEC [2]; AP39 100 nM): significantly inhibited
- oxidant-induced mitochondrial membrane potential (Δψm) collapse (HMEC [3]; AP39 100 nM): inhibition
- 4-HNE-derived intracellular oxidant species (DCFDA assay) (HMEC [4]; AP39 100 nM): significantly reduced; also recorded: significantly decreased
- time dependent increase in intracellular oxidative stress (DCFDA assay) (HMEC [4]; pretreatment with AP39 100 nM): reduced
- mitochondrial superoxide formation induced by 4-HNE (MitoSOX red) (HMEC [5]; AP39 0.1 μM, FIGS. 16 and 18): significantly reduced
- lower concentration than GYY4137 for reduction of mitochondrial superoxide (HMEC [5]; AP39 0.1 μM versus GYY4137 100 μM): 1,000 fold
- mitochondrial superoxide formation induced by H2O2 (MitoSOX red) (HMEC [5]; AP39 0.1 μM): reduced
- blood pressure [6, 14]: reduced
- breathing rate [6, 14]: transiently increased
- heart rate [6, 14]: reduced
- blood pressure ([6]; AP39 4 μM/kg, FIG. 22): sustained blood pressure (A) and heart rate (B) lowering effects
- heart rate ([6]; AP39 4 μM/kg, FIG. 22): sustained blood pressure (A) and heart rate (B) lowering effects
- effectiveness relative to Na2S at influencing blood pressure, heart rate and breathing rate ([6]; rats, FIGS. 20 to 22): 10-50 times
- blood pressure ([7]; SHR rats, 1.5 μM/kg AP39 injected, FIG. 21): Sustained blood pressure lowering effects
- heart rate ([7]; hypertensive (SHR) rats, AP39, summary statement): reducing
- vasodilatory effect on adrenaline-precontracted rat aorta [8]: vasodilatory effects
- vasodilatory effect on adrenaline-precontracted mesenteric arteries (mesenteric arteries): vasodilatory effects
- mean open time of the channel ([9]; AP39 20 μmol/l, 0 mV, control 11 ms, FIG. 27): 33 ms
- amplitude of the electrical current through the single chloride channels ([9]; AP39 20 and 40 μM, 0 mV, FIGS. 24 and 25): increased
- channel open probability ([9]; FIGS. 24-28): increased
- mean chloride channel open time, concentration dependence ([9]; concentration dependent manner, FIG. 28): increased
- conductance of chloride channels ([9]; control channel 125 pS, FIG. 26): increased
- Cl−/K+ channel permeability ratio ([9]; control ratio 9.6, FIG. 26): did not influence
- channel reversal potential ([9]; with AP39, control ~−31 mV, FIG. 26): ~−31 mV
- concentration of AP39 inhibiting CAv3.1 T-type calcium channels [10]: > 300 nM
- Prx3 oxidation by H2O2 (peroxiredoxin 3 (Prx3); 5 μM AP39 for 4 hours then 25 μM H2O2 for 1 minute, FIG. 33): reduced
- levels of the over-oxidised monomeric form of Prx3 (peroxiredoxin 3 (Prx3); 25 μM H2O2, increasing concentrations of AP39, FIGS. 32 and 33): reduced
- Nrf2 transcription factor activation (luciferase activity) ([11]; AREc32 cells, AP39 6.25 μM pre-treatment 4 h): activates
- potency at inducing Nrf2 activation compared with GYY4137 ([11]; equimolar concentrations (6.25 μM)): more potent
- IL-1β levels in the cell culture media (inflammasome activation) (inflammasome [12]): reduced
- inflammasome activity after activation by LPS/ATP (IL-1β levels) (inflammasome [13]): inhibited

Compound: [Na+].[Na+].[S-2] [Na2S, reference compound]
- blood pressure ([6]; 3 μM/kg Na2S injected, FIG. 20): no effect; also recorded: not observed
- breathing rate ([6]; 3 μM/kg Na2S injected, FIG. 20): no effect
- heart rate ([6]; 3 μM/kg Na2S injected, FIG. 20): no effect; also recorded: not observed
- blood pressure [7, 15]: did not reduce blood pressure
- heart rate [7, 15]: did not decrease heart rate

Compound: morpholin-4-ium 4-methoxyphenyl(morpholino) phosphinodithioate [GYY4137, reference compound]
- AOAA, PAG and AOAA/PAG induced cell death (HMEC [2]; GYY4137 100 μM): significantly inhibited
- oxidant-induced mitochondrial membrane potential (Δψm) collapse (HMEC [3]; GYY4137 100 μM): inhibition
- 4-HNE-derived intracellular oxidant species (DCFDA assay) (HMEC [4]; GYY4137 100 μM): significantly reduced; also recorded: significantly decreased
- time dependent increase in intracellular oxidative stress (DCFDA assay) (HMEC [4]; pretreatment with GYY4137 100 μM): reduced
- mitochondrial superoxide formation induced by 4-HNE (MitoSOX red) (HMEC [5]; GYY4137 100 μM, FIG. 16): reduced
- mitochondrial superoxide formation induced by H2O2 (MitoSOX red) (HMEC [5]; GYY4137 100 μM): reduced
- anti-cancer effects (cancer): anti-cancer effects
